Activity and IC50 data for 10 compounds are collected here from ChEMBL document CHEMBL4819097, “Identification of an allosteric and Smad3-selective inhibitor of p38αMAPK using a substrate-based approach” (Bioorg Med Chem Lett, 2021).

The source made the active and inactive calls. The rule behind the calls is not given here. Peptide text beside a SMILES is read from it.

In assay [1] the target is T1, Mitogen-activated protein kinase 14 (Homo sapiens, UniProt Q16539). As to the kind of experiment: Binding affinity to P38alpha MAPK (unknown origin) using Smad3 as substrate incubated for 1 hr in presence of increasing concentration of ATP by ELISA.
The target in assay [2] is T1, Mitogen-activated protein kinase 14. As to the kind of experiment: Binding affinity to P38alpha MAPK (unknown origin) using Smad3 as substrate incubated for 1 hr in presence of ATP by ELISA based competitive binding potency assay.
Assay [3] has the same target. Kind of assay: Binding affinity to recombinant human N-terminal GST-tagged P38alpha MAPK expressed in Escherichia coli using ERKtide as substrate by mobility shift assay.
The target is the same in assay [4]. As to the kind of experiment: Binding affinity to P38alpha MAPK (unknown origin) using MBP as substrate incubated for 1 hr by ELISA.
For assay [5] the target is unchanged. Kind of assay: Binding affinity to P38alpha MAPK (unknown origin) using MAPKAPK2 as substrate incubated for 1 hr by ELISA.

T1 sequence (Q16539 whole entry): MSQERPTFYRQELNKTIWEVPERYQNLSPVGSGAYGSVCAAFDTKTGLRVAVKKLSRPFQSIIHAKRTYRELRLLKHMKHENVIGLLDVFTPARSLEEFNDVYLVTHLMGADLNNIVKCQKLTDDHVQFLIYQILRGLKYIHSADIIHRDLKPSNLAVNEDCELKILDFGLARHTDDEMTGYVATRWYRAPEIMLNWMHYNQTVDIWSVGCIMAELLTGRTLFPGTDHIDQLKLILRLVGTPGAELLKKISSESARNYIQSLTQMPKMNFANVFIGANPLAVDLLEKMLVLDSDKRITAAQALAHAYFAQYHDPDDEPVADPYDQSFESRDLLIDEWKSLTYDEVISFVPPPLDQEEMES

As for `Oc1ccc(-c2nc(-c3ccc(F)cc3)c(-c3ccncc3)[nH]2)cc1`, the outcome in assay [1] was inactive.

As to `CC[C@H](C)[C@H](N)C(=O)N[C@@H](CCCCN)C(=O)N[C@H](C(=O)N[C@@H](CCCCN)C(=O)N[C@@H](CCCCN)C(=O)N[C@H](C(=O)N[C@@H](CCC(=O)O)C(=O)N[C@@H](CC(=O)O)C(=O)N[C@@H](C)C(=O)N[C@@H](CO)C(=O)N[C@@H](CC(N)=O)C(=O)N1CCC[C@H]1C(=O)N[C@@H](CC(C)C)C(=O)O)[C@@H](C)CC)[C@@H](C)CC` (H-IKIKKIEDASNPL-OH), the 50% inhibitory concentration (IC50) in assay [2] was more than 1 µM.

Take `CC[C@H](C)[C@H](N)C(=O)N[C@@H](CCCCN)C(=O)N[C@H](C(=O)N[C@@H](CCCCN)C(=O)N[C@@H](CCCCN)C(=O)N[C@H](C(=O)N[C@@H](CCC(=O)O)C(=O)N[C@@H](CC(=O)O)C(=O)N[C@@H](C)C(=O)N[C@@H](CO)C(=O)N[C@@H](CC(N)=O)C(=O)N1CCC[C@H]1C(=O)N[C@@H](CC(C)C)C(=O)N[C@@H](CC(C)C)C(=O)N[C@@H](CC(C)C)C(=O)N[C@H](C(=O)N[C@@H](CS)C(=O)N[C@@H](CCCNC(=N)N)C(=O)N[C@@H](CCCNC(=N)N)C(=O)N[C@@H](CCCNC(=N)N)C(=O)N[C@@H](CCCCN)C(=O)N[C@@H](C)C(=O)N[C@@H](CCCNC(=N)N)C(=O)N[C@@H](C)C(=O)N[C@@H](CC(C)C)C(=O)O)[C@@H](C)CC)[C@@H](C)CC)[C@@H](C)CC` (H-IKIKKIEDASNPLLLICRRRKARAL-OH): the half-maximal inhibitory concentration (IC50) in assay [2] is 0.0013 µM; in assay [3], more than 100 µM; in assay [4], more than 1 µM; in assay [5], more than 1 µM. Also, in assay [1], the outcome was Active.

`CC[C@H](C)[C@H](N)C(=O)N[C@@H](CCCCN)C(=O)N[C@H](C(=O)N[C@@H](CCCCN)C(=O)N[C@@H](CCCCN)C(=O)N[C@H](C(=O)N[C@@H](CCC(=O)O)C(=O)N[C@@H](CC(=O)O)C(=O)N[C@@H](C)C(=O)N[C@@H](CO)C(=O)N[C@@H](CC(N)=O)C(=O)N1CCC[C@H]1C(=O)N[C@@H](CC(C)C)C(=O)N[C@@H](CC(C)C)C(=O)N[C@@H](CC(C)C)C(=O)N[C@@H](CCCCN)C(=O)N[C@@H](CCCNC(=N)N)C(=O)N[C@@H](CCCNC(=N)N)C(=O)NCC(=O)O)[C@@H](C)CC)[C@@H](C)CC` (H-IKIKKIEDASNPLLLKRRG-OH): in assay [2], the 50% inhibitory concentration (IC50) turned out to be 0.3 µM.

As for `CC(C)C[C@H](NC(=O)[C@@H](NC(=O)[C@@H]1CCCN1C(=O)[C@@H]1CCCN1C(=O)[C@@H](N)CC(C)C)C(C)C)C(=O)N[C@H](C(=O)N1CCC[C@H]1C(=O)N[C@@H](CCCNC(=N)N)C(=O)N[C@@H](Cc1cnc[nH]1)C(=O)N[C@H](C(=O)N[C@@H](CCC(=O)O)C(=O)O)[C@@H](C)O)C(C)C` (H-LPPVLVPRHTE-OH), the IC50 in assay [2] and in assay [3] was more than 100 µM throughout.

Turning to `CC[C@H](C)[C@H](NC(=O)[C@H](CCC(=O)O)NC(=O)[C@@H](NC(=O)[C@H](Cc1cnc[nH]1)NC(=O)[C@H](CCCNC(=N)N)NC(=O)[C@@H]1CCCN1C(=O)[C@@H](NC(=O)[C@H](CC(C)C)NC(=O)[C@@H](NC(=O)[C@@H]1CCCN1C(=O)[C@@H]1CCCN1C(=O)[C@@H](N)CC(C)C)C(C)C)C(C)C)[C@@H](C)O)C(=O)N1CCC[C@H]1C(=O)N[C@@H](C)C(=O)N[C@@H](CCC(=O)O)C(=O)N[C@@H](Cc1ccccc1)C(=O)N1CCC[C@H]1C(=O)N1CCC[C@H]1C(=O)N[C@@H](CC(C)C)C(=O)N[C@@H](CC(=O)O)C(=O)O` (H-LPPVLVPRHTEIPAEFPPLD-OH), the 50% inhibitory concentration (IC50) in assay [2] and in assay [3] was more than 100 µM in each case.

As to `CC[C@H](C)[C@H](NC(=O)[C@H](CCC(=O)O)NC(=O)[C@@H](NC(=O)[C@H](Cc1cnc[nH]1)NC(=O)[C@H](CCCNC(=N)N)NC(=O)[C@@H]1CCCN1C(=O)[C@@H](NC(=O)[C@H](CC(C)C)NC(=O)[C@@H](NC(=O)[C@@H]1CCCN1C(=O)[C@@H]1CCCN1C(=O)[C@@H](N)CC(C)C)C(C)C)C(C)C)[C@@H](C)O)C(=O)N1CCC[C@H]1C(=O)N[C@@H](C)C(=O)N[C@@H](CCC(=O)O)C(=O)N[C@@H](Cc1ccccc1)C(=O)N1CCC[C@H]1C(=O)N1CCC[C@H]1C(=O)N[C@@H](CC(C)C)C(=O)N[C@@H](CC(=O)O)C(=O)N[C@@H](CC(=O)O)C(=O)N[C@@H](Cc1ccc(O)cc1)C(=O)N[C@@H](CO)C(=O)N[C@@H](Cc1cnc[nH]1)C(=O)N[C@@H](CO)C(=O)N[C@H](C(=O)N1CCC[C@H]1C(=O)N[C@@H](CCC(=O)O)C(=O)N[C@@H](CC(N)=O)C(=O)O)[C@@H](C)CC` (H-LPPVLVPRHTEIPAEFPPLDDYSHSIPEN-OH), the IC50 in assay [2] and in assay [3] was more than 100 µM each time.

Consider `CC[C@H](C)[C@H](NC(=O)[C@H](CCCCN)NC(=O)[C@H](CC(C)C)NC(=O)CNC(=O)[C@@H]1CCCN1C(=O)[C@H](CC(N)=O)NC(=O)[C@H](CCCNC(=N)N)NC(=O)[C@H](CCCCN)NC(=O)[C@H](CCCCN)NC(=O)CNC(=O)[C@H](CCCCN)NC(=O)[C@@H](N)CO)C(=O)N1CCC[C@H]1C(=O)O` (H-SKGKKRNPGLKIP-OH), for which the IC50 is 2.6 µM in assay [2] and more than 100 µM in assay [3].

`CC(C)C[C@H](NC(=O)[C@H](C)NC(=O)[C@H](CCCNC(=N)N)NC(=O)[C@H](C)NC(=O)[C@H](CCCCN)NC(=O)[C@H](CCCNC(=N)N)NC(=O)[C@H](CCCNC(=N)N)NC(=O)[C@H](CCCNC(=N)N)NC(=O)[C@H](CCCCN)NC(=O)[C@H](CC(C)C)NC(=O)[C@H](CC(C)C)NC(=O)[C@H](CC(C)C)NC(=O)[C@@H]1CCCN1C(=O)[C@H](CC(N)=O)NC(=O)[C@@H](N)CO)C(=O)O` (H-SNPLLLKRRRKARAL-OH): the IC50 in assay [2] is 0.29 µM.

Consider `CC[C@H](C)[C@H](NC(=O)[C@H](Cc1c[nH]c2ccccc12)NC(=O)CNC(=O)[C@H](CC(C)C)NC(=O)[C@H](CC(C)C)NC(=O)[C@H](CCCNC(=N)N)NC(=O)[C@H](CS)NC(=O)[C@@H](NC(=O)[C@@H](NC(=O)[C@@H](NC(=O)[C@@H]1CCCN1C(=O)[C@@H]1CCCN1C(=O)[C@@H](NC(=O)[C@H](Cc1ccccc1)NC(=O)[C@@H]1CCCN1C(=O)[C@H](CC(C)C)NC(=O)[C@@H](NC(=O)[C@H](CO)NC(=O)[C@@H](N)CO)[C@@H](C)CC)[C@@H](C)O)[C@@H](C)CC)C(C)C)[C@@H](C)CC)C(=O)N[C@@H](CS)C(=O)N[C@@H](CCCCN)C(=O)NCC(=O)N[C@@H](CCC(=O)O)C(=O)O` (H-SSILPFTPPIVICRLLGWICKGE-OH), for which the IC50 in assay [2] is 9 µM; in assay [3], more than 100 µM.
